Laboratory results: patent publication US8114862B2, “TGR5 modulators and methods of use thereof” (Intercept Pharmaceuticals, Inc., priority 2008, dated 2012)

Assays:
[1] = test system: DIO and db/db mice; assay: Glucose homeostasis and insulin sensitivity in DIO and db/db mice (Example 21); format: in vivo, mouse
Method: Animals were housed and bred according to standardized procedures (Argmann and Auwerx, 2006b). Age-matched male mice were used for all experiments. Genetically engineered mouse models (GEMMs), i.e., TGR5-Tg and TGR5^−/− mice, were generated as described in the Supplemental Data. […]; Research Diets) for at least 8 weeks, as mentioned in the text and figure legends. […] Mouse phenotyping experiments were performed according to EMPRESS protocols (see, for example, Empress (European Mouse Phenotyping Resource of Standardised Screening) website) and were aimed to assess food and water intake, body composition (Argmann et al., 2006a, Curr. Protoc. Mol. Biol. Chapter 29, Unit 29A, 23), energy expenditure (Argmann et al., 2006a, Curr. Protoc. Mol. Biol. Chapter 29, Unit 29A, 23), glucose and lipid homeostasis (Argmann et al., 2006b, Curr. Protoc. Mol. Biol. Chapter 29, Unit 29A, 22); Heikkinen et al., 2007, Curr. Protoc. Mol. Chapter. 29, Unit 29B, 23; Mataki et al., 2007, Mol. Cell. Biol. 27, 8330), and plasma biochemistry (Argmann and Auwerx, 2006a, Curr. Protoc. Mol. Biol. Chapter 29, Unit 29A, 22). Tissues and blood were collected and processed for histopathology, blood chemistry, and gene expression according to standardized procedures (Argmann and Auwerx, 2006a; Feige et al., 2008b; Mark et al., 2007; Watanabe et al., 2006). Hyperinsulinemic euglycemic clamp studies were performed as described (Feige et al., 2008b), with minor modifications including a change in the initial insulin bolus (30 mU/kg) and insulin infusion rate (10 mU/min/kg). Plasma GLP-1 levels were measured by ELISA (Millipore) on blood collected by retro-orbital puncture. […].
To further characterize the impact of compound Ih3e on glucose homeostasis and insulin sensitivity, a hyperinsulinemic euglycemic glucose clamp was performed on these DIO mice. […]. These effects correlated with normalization in the expression of key genes involved in hepatic glucose homeostasis (FIG. 21G).

[2] = Stability in human liver microsomes; conditions: liver microsomes
[3] = test system: HF-fed C57BL/6J mice; assay: Dietary intervention in HF-fed C57BL/6J mice (Example 20); format: in vivo, mouse
Method: Age-matched male mice were used for all experiments. Genetically engineered mouse models (GEMMs), i.e., TGR5-Tg and TGR5^−/− mice, were generated as described in the Supplemental Data. […] Protoc. Mol. Chapter. […] Protoc. Mol. Biol. Chapter 29, Unit 29A, 22). […] Plasma GLP-1 levels were measured by ELISA (Millipore) on blood collected by retro-orbital puncture.

[4] = Biliary secretion and metabolism in bile fistula rat, id and iv infusion; conditions: for Conc. / Secretion: rat bile; for fraction unbound at 4 h: rat, in vivo, 1 μmol/kg/min
[5] = molecular target: T1, CAR (Homo sapiens, UniProt Q14994); assay: CAR coactivator recruitment (Lanthascreen); format: biochemical; conditions: read-out: CAR Activation EC50
T1 construct: purchased Invitrogen
T1 sequence (Q14994 109-352 limits assumed): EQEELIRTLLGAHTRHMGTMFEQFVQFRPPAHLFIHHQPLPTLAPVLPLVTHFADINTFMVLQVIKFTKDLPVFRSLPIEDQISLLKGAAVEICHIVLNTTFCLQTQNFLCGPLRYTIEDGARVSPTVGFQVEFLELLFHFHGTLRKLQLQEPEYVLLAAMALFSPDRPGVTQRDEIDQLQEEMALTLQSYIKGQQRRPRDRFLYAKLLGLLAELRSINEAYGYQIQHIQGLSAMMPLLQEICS
Method: CAR: Coactivator Recruitment (Lanthascreen)
Lanthascreen assay (Invitrogen) was used for nulear receptor selectivity assay. The kit uses a terbium-labeled anti-GST antibody, a fluorescein-labeled coactivator peptide, and a NR ligand-binding domain that is tagged with glutathione-S-transferase (GST) in a homogenous mix-and-read assay format. […] Following 1 hour incubation in the dark, TR-FRET measurements were made in the Envision. […] The data was analyzed using GraphPad Prism using the sigmoidal curve equation with variable slope to obtain EC50 values.

[6] = Choleretic effect (bile flow) in bile fistula rat, id and iv infusion; format: in vivo; conditions: for SV0: maximum bile secretion rate: 1 (μmol/min)/kg bw over 1 h
[7] = duodenal infusion 75-135 min, time 90 min
[8] = duodenal infusion 75-135 min, time 120 min
[9] = duodenal infusion 75-135 min, time 150 min
[10] = duodenal infusion 75-135 min, time 180 min
[11] = duodenal infusion 75-135 min, time 210 min
[12] = duodenal infusion 75-135 min, time 240 min
[13] = duodenal infusion 75-135 min, time 270 min
[14] = duodenal infusion 75-135 min, time 300 min
[15] = femoral infusion 75-135 min, time 90 min
[16] = femoral infusion 75-135 min, time 120 min
[17] = femoral infusion 75-135 min, time 150 min
[18] = femoral infusion 75-135 min, time 180 min
[19] = femoral infusion 75-135 min, time 210 min
[20] = femoral infusion 75-135 min, time 240 min
[21] = femoral infusion 75-135 min, time 270 min

CC[C@H]1[C@@H](O)[C@@H]2[C@H](C[C@H](O)[C@]3(C)[C@@H]([C@H](C)C[C@H](C)C(=O)O)CC[C@@H]23)[C@@]2(C)CC[C@@H](O)C[C@@H]12 [Ih3e, 6α-ethyl-(23S)-methyl-3α,7α,12α trihydroxy-5β-cholan-24-oic acid]
fasting glucose and insulin levels ([1]; DIO and db/db mice): decreased | glucose-stimulated insulin secretion profile ([1]; DIO and db/db mice): improvement | glucose tolerance after an oral challenge with glucose ([1]; DIO and db/db mice, 30 mkd): robustly improved glucose tolerance | glucose infusion rate required to maintain euglycemia ([1]; DIO mice, hyperinsulinemic euglycemic clamp): virtually identical to that observed in CD-fed control mice | body weight ([1]; HF-fed C57BL6/J mice, 30 mg/kg/d for 8 weeks): 32.26 ± 0.95 g | hepatic glucose production, glucose disposal rate, suppression of glucose production by insulin ([1]; HF-fed mice, clamp): normalized these parameters to the values observed in CD-fed mice | insulin-stimulated 14C-deoxyglucose uptake ([1]; clamp): reduced insulin resistance in liver and muscle | expression of key genes involved in hepatic glucose homeostasis ([1]; mouse, in vivo): normalization | half-life [2]: 32.4 h | expression level of classical target genes of FXR in the liver (CYP7A1, BSEP) ([3]; 30 mg/kg/day): complete absence of changes | plasma levels ([3]; 30 mg/kg/day admixed with diet): within the range of those of CA and 3-muricholic acid | increase in liver and fat pad mass ([3]; HF-fed): attenuated | plasma triglycerides and nonesterified fatty acids (NEFAs) ([3]; HF-fed mice): significant drop | fat mass ([3]; HF-fed, relative to HF-fed controls): sharp reduction in fat mass | liver fibrosis ([3]; Sirius red staining): absence of liver fibrosis | attenuation of body weight gain ([3]; after 10 weeks of treatment, relative to HF-fed controls): about 15% | plasma levels of liver enzymes ([3]; compared to HF-fed controls): markedly reduced | respiratory quotient ([3]; dark period): significantly reduced | energy expenditure (O2 consumption and CO2 production) ([3]; indirect calorimetry): enhanced energy expenditure | gene expression profiling of BAT ([3]; mouse, in vivo): increase of several mitochondrial genes involved in energy expenditure | liver steatosis ([3]; oil red O staining, liver lipid content): reduction in liver steatosis | compound secreted into the bile in its unconjugated form ([4]; after intravenous or intraduodenal infusion): more than 90% | biliary secretion ([4]; after iv administration): efficient | recovery in bile after id administration ([4]; id vs iv): slightly lower than the recovery after iv administration | Conc. [4, 7]: 7 µM | Secretion [4, 7]: 0.0003 µmol/kg/min | Conc. [4, 8]: 690 µM | Secretion [4, 8]: 0.057 µmol/kg/min | Conc. [4, 9]: 1880 µM | Secretion [4, 9]: 0.167 µmol/kg/min | Conc. [4, 10]: 1290 µM | Secretion [4, 10]: 0.150 µmol/kg/min | Conc. [4, 11]: 790 µM | Secretion [4, 11]: 0.077 µmol/kg/min | Conc. [4, 12]: 390 µM | Secretion [4, 12]: 0.033 µmol/kg/min | Conc. [4, 13]: 270 µM | Secretion [4, 13]: 0.026 µmol/kg/min | Conc. [4, 14]: 200 µM | Secretion [4, 14]: 0.015 µmol/kg/min | Conc. [4, 15]: 1900 µM | Secretion [4, 15]: 0.1 µmol/kg/min | Conc. [4, 16]: 3100 µM | Secretion [4, 16]: 0.23 µmol/kg/min | Conc. [4, 17]: 3400 µM | Secretion [4, 17]: 0.31 µmol/kg/min | Conc. [4, 18]: 2300 µM | Secretion [4, 18]: 0.2 µmol/kg/min | Conc. [4, 19]: 1060 µM | Secretion [4, 19]: 0.105 µmol/kg/min | Conc. [4, 20]: 550 µM | Secretion [4, 20]: 0.049 µmol/kg/min | Conc. [4, 21]: 270 µM | Secretion [4, 21]: 0.018 µmol/kg/min | fraction unbound at 4 h [4]: 0.94 ± 0.06 | fraction unbound at 4 h ([4]; iv): 0.93 | EC50 [5]: > 250 µM | duration of increased bile flow ([6]; duodenal infusion): at least 3 hours | maximum bile flow rate ([6]; duodenal infusion 1 μmol/kg/min, 1 hour): about 120 μL/min/kg | SV0: maximum bile secretion rate ([6]; id infusion): 112 ± 12 (μL/min)/kg bw | bile flow rate ([6]; iv (femoral) infusion): significantly increased the bile flow rate | SV0: maximum bile secretion rate ([6]; iv infusion): (131 ± 11) (μL/min)/kg bw
